Experiments:
Test in all cases: Reduction of azo substrates over 24 hours at 35° C., microtitration plate (Example 1)
Type in all cases: cell-based
Acinetobacter baumanii = tested on: Acinetobacter baumanii; design: key to RED (substrate reduced or not): RED indicates whether the substrate is reduced (Y) or not (N); RED indicates whether the substrate is reduced (Y) or not (N); key to Decol (substrate decolourized, decrease in absorbance) / Fluo (fluorescence multiplied by 2 relative to substrate-free control) / Co (growth, absorbance at 660 nm): The symbol “+” means good growth/decolourization/significant increase in fluorescence; The symbol “+/−” means difficult growth; The symbol “−” means that there is no growth/decolourization/significant increase in fluorescence; conditions: A. baumannii, substrate 35 mg/l
Protocol: (§1) Reduction of the “azo” function of the substrates listed in Table I by the species listed in Table II, each species being represented by a strain, is tested in a microtitration plate.
(§2) The reaction medium consists of: • Trypcase soya broth • Substrate 35 mg/l • 0.5 MacFarland inoculum
(§3) The reduction of the substrate and the growth of the microorganisms are monitored using an Infinite® M200 Tecan microplate reader at 35° C. over 24 hours.
(§4) The growth is monitored by the absorbance at 660 nm and the reduction of the substrates by absorbance and fluorescence at the specific wavelengths indicated in Table III.
(§5) The substrate is considered as reduced by the microorganisms when the substrate is decolourized (monitored by the decrease in absorbance) (Decol) and/or when the fluorescence of the substrate is multiplied by 2 relative to the base fluorescence of a substrate-free control (Fluo). The growth is indicated by Co. The symbol “+” means good growth/decolourization/significant increase in fluorescence. The symbol “+/−” means difficult growth. The symbol “−” means that there is no growth/decolourization/significant increase in fluorescence. RED indicates whether the substrate is reduced (Y) or not (N).

Enterococcus faecalis = tested on: Enterococcus faecalis; design: key to RED (substrate reduced or not): RED indicates whether the substrate is reduced (Y) or not (N); RED indicates whether the substrate is reduced (Y) or not (N); key to Decol (substrate decolourized, decrease in absorbance) / Fluo (fluorescence multiplied by 2 relative to substrate-free control) / Co (growth, absorbance at 660 nm): The symbol “+” means good growth/decolourization/significant increase in fluorescence; The symbol “+/−” means difficult growth; The symbol “−” means that there is no growth/decolourization/significant increase in fluorescence; conditions: E. faecalis, substrate 35 mg/l
Protocol: as §1, §2, §3, §4, §5

Candida albicans = tested on: Candida albicans; design: key to RED (substrate reduced or not): RED indicates whether the substrate is reduced (Y) or not (N); RED indicates whether the substrate is reduced (Y) or not (N); key to Co (growth, absorbance at 660 nm) / Decol (substrate decolourized, decrease in absorbance) / Fluo (fluorescence multiplied by 2 relative to substrate-free control): The symbol “+” means good growth/decolourization/significant increase in fluorescence; The symbol “+/−” means difficult growth; The symbol “−” means that there is no growth/decolourization/significant increase in fluorescence; conditions: substrate 35 mg/l
Protocol: as §1, §2, §3, §4, §5

Cronobacter muytjensii = tested on: Cronobacter muytjensii; design: key to RED (substrate reduced or not): RED indicates whether the substrate is reduced (Y) or not (N); RED indicates whether the substrate is reduced (Y) or not (N); key to Co (growth, absorbance at 660 nm) / Decol (substrate decolourized, decrease in absorbance) / Fluo (fluorescence multiplied by 2 relative to substrate-free control): The symbol “+” means good growth/decolourization/significant increase in fluorescence; The symbol “+/−” means difficult growth; The symbol “−” means that there is no growth/decolourization/significant increase in fluorescence; conditions: E. muytjensii, substrate 35 mg/l
Protocol: as §1, §2, §3, §4, §5

[1] = tested on: Staphylococcus epidermidis; design: key to RED (substrate reduced or not): RED indicates whether the substrate is reduced (Y) or not (N); RED indicates whether the substrate is reduced (Y) or not (N); key to Co (growth, absorbance at 660 nm) / Decol (substrate decolourized, decrease in absorbance) / Fluo (fluorescence multiplied by 2 relative to substrate-free control): The symbol “+” means good growth/decolourization/significant increase in fluorescence; The symbol “+/−” means difficult growth; The symbol “−” means that there is no growth/decolourization/significant increase in fluorescence; conditions: S. epidermidis, substrate 35 mg/l
Protocol: as §1, §2, §3, §4, §5

Escherichia coli = tested on: Escherichia coli; design: key to RED (substrate reduced or not): RED indicates whether the substrate is reduced (Y) or not (N); RED indicates whether the substrate is reduced (Y) or not (N); key to Co (growth, absorbance at 660 nm) / Decol (substrate decolourized, decrease in absorbance) / Fluo (fluorescence multiplied by 2 relative to substrate-free control): The symbol “+” means good growth/decolourization/significant increase in fluorescence; The symbol “+/−” means difficult growth; The symbol “−” means that there is no growth/decolourization/significant increase in fluorescence; conditions: E. coli, substrate 35 mg/l
Protocol: as §1, §2, §3, §4, §5

Kocuria rosea = tested on: Kocuria rosea; design: key to RED (substrate reduced or not): RED indicates whether the substrate is reduced (Y) or not (N); RED indicates whether the substrate is reduced (Y) or not (N); key to Co (growth, absorbance at 660 nm) / Decol (substrate decolourized, decrease in absorbance) / Fluo (fluorescence multiplied by 2 relative to substrate-free control): The symbol “+” means good growth/decolourization/significant increase in fluorescence; The symbol “+/−” means difficult growth; The symbol “−” means that there is no growth/decolourization/significant increase in fluorescence; conditions: K. rosea, substrate 35 mg/l
Protocol: as §1, §2, §3, §4, §5

Pseudomonas aeruginosa = tested on: Pseudomonas aeruginosa; design: key to RED (substrate reduced or not): RED indicates whether the substrate is reduced (Y) or not (N); RED indicates whether the substrate is reduced (Y) or not (N); key to Co (growth, absorbance at 660 nm) / Decol (substrate decolourized, decrease in absorbance) / Fluo (fluorescence multiplied by 2 relative to substrate-free control): The symbol “+” means good growth/decolourization/significant increase in fluorescence; The symbol “+/−” means difficult growth; The symbol “−” means that there is no growth/decolourization/significant increase in fluorescence; conditions: P. aeruginosa, substrate 35 mg/l
Protocol: as §1, §2, §3, §4, §5

Geotrichum candidum = tested on: Geotrichum candidum; design: key to RED (substrate reduced or not): RED indicates whether the substrate is reduced (Y) or not (N); RED indicates whether the substrate is reduced (Y) or not (N); key to Co (growth, absorbance at 660 nm) / Decol (substrate decolourized, decrease in absorbance) / Fluo (fluorescence multiplied by 2 relative to substrate-free control): The symbol “+” means good growth/decolourization/significant increase in fluorescence; The symbol “+/−” means difficult growth; The symbol “−” means that there is no growth/decolourization/significant increase in fluorescence; conditions: G. candidum, substrate 35 mg/l
Protocol: as §1, §2, §3, §4, §5

Staphylococcus aureus = tested on: Staphylococcus aureus; design: key to RED (substrate reduced or not): RED indicates whether the substrate is reduced (Y) or not (N); RED indicates whether the substrate is reduced (Y) or not (N); key to Co (growth, absorbance at 660 nm) / Decol (substrate decolourized, decrease in absorbance) / Fluo (fluorescence multiplied by 2 relative to substrate-free control): The symbol “+” means good growth/decolourization/significant increase in fluorescence; The symbol “+/−” means difficult growth; The symbol “−” means that there is no growth/decolourization/significant increase in fluorescence; conditions: S. aureus, substrate 35 mg/l
Protocol: as §1, §2, §3, §4, §5

## O=C(O)c1ccccc1/N=N/c1cc(Br)c(O)c(Br)c1 [2-(4-hydroxy-3,5-dibromophenylazo)benzoic acid]
Acinetobacter baumanii
  Co (growth, absorbance at 660 nm): +
  Decol (substrate decolourized, decrease in absorbance): −
  Fluo (fluorescence multiplied by 2 relative to substrate-free control): +
  RED (substrate reduced or not): Y
Enterococcus faecalis
  Co (growth, absorbance at 660 nm): +
  Decol (substrate decolourized, decrease in absorbance): +
  Fluo (fluorescence multiplied by 2 relative to substrate-free control): +
  RED (substrate reduced or not): Y
Candida albicans
  Co (growth, absorbance at 660 nm): +
  Decol (substrate decolourized, decrease in absorbance): −
  Fluo (fluorescence multiplied by 2 relative to substrate-free control): −
  RED (substrate reduced or not): N
Cronobacter muytjensii
  Co (growth, absorbance at 660 nm): +
  Decol (substrate decolourized, decrease in absorbance): +
  Fluo (fluorescence multiplied by 2 relative to substrate-free control): +
  RED (substrate reduced or not): Y
[1]
  Co (growth, absorbance at 660 nm): +
  Decol (substrate decolourized, decrease in absorbance): +/−
  Fluo (fluorescence multiplied by 2 relative to substrate-free control): +
  RED (substrate reduced or not): Y
Escherichia coli
  Co (growth, absorbance at 660 nm): +
  Decol (substrate decolourized, decrease in absorbance): −
  Fluo (fluorescence multiplied by 2 relative to substrate-free control): +
  RED (substrate reduced or not): Y
Kocuria rosea
  Co (growth, absorbance at 660 nm): −
  Decol (substrate decolourized, decrease in absorbance): −
  Fluo (fluorescence multiplied by 2 relative to substrate-free control): −
Pseudomonas aeruginosa
  Co (growth, absorbance at 660 nm): +
  Decol (substrate decolourized, decrease in absorbance): −
  Fluo (fluorescence multiplied by 2 relative to substrate-free control): −
  RED (substrate reduced or not): N
Geotrichum candidum
  Co (growth, absorbance at 660 nm): +
  Decol (substrate decolourized, decrease in absorbance): −
  Fluo (fluorescence multiplied by 2 relative to substrate-free control): +
  RED (substrate reduced or not): Y
Staphylococcus aureus
  Co (growth, absorbance at 660 nm): +
  Decol (substrate decolourized, decrease in absorbance): +
  Fluo (fluorescence multiplied by 2 relative to substrate-free control): +
  RED (substrate reduced or not): Y

## CC(=O)Oc1ccc(/N=N/c2ccccc2C(=O)O)cc1 [2-(4-acetoxyphenylazo)benzoic acid, 2-(4-Acetoxyphenylazo)benzoic acid]
Acinetobacter baumanii
  Co (growth, absorbance at 660 nm): +
  Decol (substrate decolourized, decrease in absorbance): +
  Fluo (fluorescence multiplied by 2 relative to substrate-free control): +
  RED (substrate reduced or not): Y
Enterococcus faecalis
  Co (growth, absorbance at 660 nm): +
  Decol (substrate decolourized, decrease in absorbance): +
  Fluo (fluorescence multiplied by 2 relative to substrate-free control): +
  RED (substrate reduced or not): Y
Candida albicans
  Co (growth, absorbance at 660 nm): +
  Decol (substrate decolourized, decrease in absorbance): −
  Fluo (fluorescence multiplied by 2 relative to substrate-free control): −
  RED (substrate reduced or not): N
Cronobacter muytjensii
  Co (growth, absorbance at 660 nm): +
  Decol (substrate decolourized, decrease in absorbance): +
  Fluo (fluorescence multiplied by 2 relative to substrate-free control): +
  RED (substrate reduced or not): Y
[1]
  Co (growth, absorbance at 660 nm): +
  Decol (substrate decolourized, decrease in absorbance): +
  Fluo (fluorescence multiplied by 2 relative to substrate-free control): +
  RED (substrate reduced or not): Y
Escherichia coli
  Co (growth, absorbance at 660 nm): +
  Decol (substrate decolourized, decrease in absorbance): +
  Fluo (fluorescence multiplied by 2 relative to substrate-free control): +
  RED (substrate reduced or not): Y
Kocuria rosea
  Co (growth, absorbance at 660 nm): −
  Decol (substrate decolourized, decrease in absorbance): −
  Fluo (fluorescence multiplied by 2 relative to substrate-free control): −
Pseudomonas aeruginosa
  Co (growth, absorbance at 660 nm): +
  Decol (substrate decolourized, decrease in absorbance): −
  Fluo (fluorescence multiplied by 2 relative to substrate-free control): −
  RED (substrate reduced or not): N
Geotrichum candidum
  Co (growth, absorbance at 660 nm): +
  Decol (substrate decolourized, decrease in absorbance): +
  Fluo (fluorescence multiplied by 2 relative to substrate-free control): +
  RED (substrate reduced or not): Y
Staphylococcus aureus
  Co (growth, absorbance at 660 nm): +
  Decol (substrate decolourized, decrease in absorbance): +
  Fluo (fluorescence multiplied by 2 relative to substrate-free control): +
  RED (substrate reduced or not): Y

Reference: patent US20150125889A1, “IN VITRO DETECTION OF MICROORGANISMS WITH AZOREDUCTASE ACTIVITY” (BIOMÉRIEUX, priority 2012, published 2015)
